Consider 1 compound from PMC2904697, “A Screen for Kinetochore-Microtubule Interaction Inhibitors Identifies Novel Antitubulin Compounds” (PLoS ONE, 2010).

Series [1] has as its system HeLa cells. As to the kind of experiment: Ability of the compound to enter cells. The format is cell-based, human. The source says:
During the last twenty-five years antispindle drugs have been used with great success in the fight against cancer. However, as cancer cells are developing resistance against these drugs, there is an urgent need for compounds targeting alternative mitotic targets. As kinetochores orchestrate chromosome segregation and comprise >100 proteins, they are appealing mitosis-specific drug targets. The high antitumor activity of compounds inhibiting kinetochore regulators (Aurora kinase, PLK1) and the kinetochore-associated kinesin CENP-E supports the concept of targeting kinetochore function to eradicate proliferating cells, [9], [19]. The complexity of kinetochores, the lack of insight into intrakinetochore protein-protein contacts and protein-activity relationships, as well as the difficulty to produce kinetochore subunits in large quantities for use in in vitro screens has long hampered the conversion of structural kinetochore components into anticancer drug targets. […] As the Ndc80 complex can be produced recombinantly in high quantity and because the recombinant complex is fully active as shown following injection in cells we focused on this complex to screen for inhibitors of kinetochore-MT binding. […]

The test system of series [2] is recombinant CLIP-170^488 binding to taxol-stabilized MTs. Kind of series: CLIP-170^488 binding to taxol-stabilized MTs (specificity control). Particulars: compound B at 50 µmol/l. The source says:
Figure 2 Compound B prevents the recombinant Ndc80 kinetochore complex from binding to taxol-stabilized microtubules. Effect of compound B (50 µmol/l) on binding of the Ndc80^488 complex to rhodamine-labeled, taxol-stabilized MTs as assayed using inverted wide-field fluorescence microscopy. The scale bar represents 4 µm (A). Structure of compound B; 6-furan-2-yl-3-methyl-4-oxo-4,5,6,7-tetrahydro-1H-indole-2-carboxylic acid (tetrahydro-furan-2-yl)methyl ester (B). Measurement of the IC50 value of compound B using total internal reflection fluorescence microscopy. The scale bar represents 4 µm (C). Compound B (50 µmol/l) prevented MT-associating protein CLIP-170^488, used as a specificity control, from binding to taxol-stabilized MTs. The scale bar represents 4 µm (D). […] The scale bar represents 4 µm (E).
A compound inhibiting the Ndc80^488 complex-MT interaction could act either against the complex or against the MTs. To probe the specificity of compound B toward the Ndc80^488 complex, we examined its ability to inhibit MT binding of recombinant CLIP-170^488, a MT plus-end tracking protein.

The structures appear in SMILES notation.

Turning to `N#CC(=Cc1ccc(-c2ccc(C(=O)O)cc2)o1)c1nc2ccccc2[nH]1` [compound C, 4-5-2-1H-benzimidazol-2-yl-2-cyano-vinyl-furan-2-yl-benzoic acid], the Cell entry result in series [1] is on record as “inability of the compound to enter cells”. Further, in series [2], the “Effect on binding of CLIP-170^488 to taxol-stabilized MTs” value is “did not inhibit”.
